Results reported in US20140057895A1, “INDAZOLE- AND PYRROLOPYRIDINE-DERIVATIVE AND PHARMACEUTICAL USE THEREOF” (priority 2011, published 2014).
Values belong to the compound of their own block, whether it stands above or below them.

Legend:
[1] = target: T1, Human 5-HT4 receptor (5-HT4b) (Homo sapiens, UniProt Q13639); test: Test Example 3: Human 5-HT4 receptor binding assay, membranes of CHO-K1 cells stably expressing 5-HT4b receptors (Table 99); settings: mean value of each group
T1 construct: expressed in transfected cells; membrane preparation
Method in brief: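 Radioligand displacement: [3H]-GR113808 (0.1 nM) bound to CHO-K1 5-HT4b membranes for 30 min at 37 °C in Hepes buffer (50 mM, pH 7.4). Specific binding is total minus that with 30 μM serotonin; filter-bound radioactivity counted, IC50 derived from percent inhibition.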

human 5-HT4b receptor = target: T2, human 5-HT4b receptor (Homo sapiens, UniProt Q13639); test: Test Example 4: Serotonin 4 (5-HT4) receptor agonist activity assay, cAMP HTRF in CHO cells (Table 100); type: cell-based; settings: mean value; for Emax: CHO, 0.25 h, intrinsic activity, maximal activity of 5-HT defined as 100%, read-out: IA (%); for EC50: concentration showing 50% of IA
T2 construct: expressed in transfected cells; host or cells: CHO cells (G418 selection)
Method in brief: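 Read-out is HTRF cAMP (time-resolved fluorescence 620/665 nm after 1 h RT with cAMP-cryptate and cAMP-d2), from recombinant CHO cells bearing human 5-HT4b treated with compound 15 min at 31° C. in Hanks/HEPES buffer pH 7.4. IA (%) scaled to peak 5-HT effect over 10^−11–10^−7 M; EC50 is concentration giving half that IA.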

T1 sequence (Q13639 whole entry): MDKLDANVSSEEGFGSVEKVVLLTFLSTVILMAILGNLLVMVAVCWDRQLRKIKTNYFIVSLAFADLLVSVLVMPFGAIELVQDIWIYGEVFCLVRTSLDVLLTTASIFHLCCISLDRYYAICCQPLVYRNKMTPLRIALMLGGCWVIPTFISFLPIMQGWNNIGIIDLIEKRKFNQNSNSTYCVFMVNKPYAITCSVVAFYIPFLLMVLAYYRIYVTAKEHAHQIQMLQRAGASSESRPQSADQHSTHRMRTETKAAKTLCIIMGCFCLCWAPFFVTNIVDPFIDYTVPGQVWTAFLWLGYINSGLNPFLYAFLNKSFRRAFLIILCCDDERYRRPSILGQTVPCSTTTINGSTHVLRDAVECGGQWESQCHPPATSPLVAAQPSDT
T2 sequence (Q13639 whole entry): as above

Compound: CC(=O)N1CC[C@@H](CN2CC[C@H](Cc3nc(-n4nc(C(C)C)c5cccc(F)c54)no3)C2)C1 [Example 503, 1-[(3S)-3-{[(3R)-3-({3-[7-fluoro-3-(propan-2-yl)-1H-indazol-1-yl]-1,2,4-oxadiazol-5-yl}methyl)pyrrolidin-1-yl]methyl}pyrrolidin-1-yl]ethanone]
IC50 [1]: < 20 nM | Emax (human 5-HT4b receptor): 98% | EC50 (human 5-HT4b receptor): 5 nM

Compound: CC(C)c1nn(-c2noc(C[C@H]3CCN(C[C@@H]4CCN(S(C)(=O)=O)C4)C3)n2)c2c(F)cccc12 [Example 504, 7-fluoro-1-(5-{[(3R)-1-{[(3S)-1-(methylsulfonyl)pyrrolidin-3-yl]methyl}pyrrolidin-3-yl]methyl}-1,2,4-oxadiazol-3-yl)-3-(propan-2-yl)-1H-indazole]
IC50 [1]: < 20 nM | Emax (human 5-HT4b receptor): 47% | EC50 (human 5-HT4b receptor): 3.9 nM

Compound: CC(=O)N1CC[C@H](CN2CC[C@H](Cc3nc(-n4nc(C(C)C)c5cccc(F)c54)no3)C2)C1 [Example 505, 1-[(3R)-3-{[(3R)-3-({3-(7-fluoro-3-(propan-2-yl)-1H-indazol-1-yl]-1,2,4-oxadiazol-5-yl}methyl)pyrrolidin-1-yl]methyl}pyrrolidin-1-yl]ethanone]
IC50 [1]: < 20 nM | Emax (human 5-HT4b receptor): 52% | EC50 (human 5-HT4b receptor): 5.5 nM

Compound: CC(C)c1nn(-c2noc(C[C@H]3CCN(C[C@H]4CCN(S(C)(=O)=O)C4)C3)n2)c2c(F)cccc12 [Example 506, 7-fluoro-1-(5-{[(3R)-1-{[(3R)-1-(methylsulfonyl)pyrrolidin-3-yl]methyl}pyrrolidin-3-yl]methyl}-1,2,4-oxadiazol-3-yl)-3-(propan-2-yl)-1H-indazole]
IC50 [1]: < 20 nM | Emax (human 5-HT4b receptor): 46% | EC50 (human 5-HT4b receptor): 2.8 nM

Compound: CC(C)c1nn(-c2noc(C[C@@H]3CCN(C4CCN(S(C)(=O)=O)CC4)C3)n2)c2c(F)cccc12 [Example 508, 7-fluoro-1-[5-({(3S)-1-[1-(methylsulfonyl)piperidin-4-yl]pyrrolidin-3-yl}methyl)-1,2,4-oxadiazol-3-yl]-3-(propan-2-yl)-1H-indazole]
IC50 [1]: < 20 nM | Emax (human 5-HT4b receptor): 54% | EC50 (human 5-HT4b receptor): 3.7 nM

Compound: CC(=O)N1CCC[C@H]1CN1CC[C@@H](Cc2nc(-n3nc(C(C)C)c4cccc(F)c43)no2)C1 [Example 509, 1-[(2S)-2-{[(3S)-3-({3-[7-fluoro-3-(propan-2-yl)-1H-indazol-1-yl]-1,2,4-oxadiazol-5-yl}methyl)pyrrolidin-1-yl]methyl)pyrrolidin-1-yl]ethanone]
IC50 [1]: 27.4 nM | Emax (human 5-HT4b receptor): 56% | EC50 (human 5-HT4b receptor): 16.3 nM

Compound: CC(C)c1nn(-c2noc(C[C@@H]3CCN(C[C@@H]4CCCN4S(C)(=O)=O)C3)n2)c2c(F)cccc12 [Example 510, 7-fluoro-1-(5-{[(3S)-1-{[(2S)-1-(methylsulfonyl)pyrrolidin-2-yl]methyl}pyrrolidin-3-yl]methyl}-1,2,4-oxadiazol-3-yl)-3-(propan-2-yl)-1H-indazole]
IC50 [1]: < 20 nM | Emax (human 5-HT4b receptor): 46% | EC50 (human 5-HT4b receptor): 2.7 nM

Compound: CC(=O)N1CCC[C@@H]1CN1CC[C@@H](Cc2nc(-n3nc(C(C)C)c4cccc(F)c43)no2)C1 [Example 511, 1-[(2R)-2-{[(3S)-3-({3-[7-fluoro-3-(propan-2-yl)-1H-indazol-1-yl]-1,2,4-oxadiazol-5-yl}methyl)pyrrolidin-1-yl]methyl}pyrrolidin-1-yl]ethanone]
IC50 [1]: < 20 nM | Emax (human 5-HT4b receptor): 51% | EC50 (human 5-HT4b receptor): 9.6 nM

Compound: CC(C)c1nn(-c2noc(C[C@@H]3CCN(C[C@H]4CCCN4S(C)(=O)=O)C3)n2)c2c(F)cccc12 [Example 512, 7-fluoro-1-(5-{[(3S)-1-{[(2R)-1-(methylsulfonyl)pyrrolidin-2-yl]methyl}pyrrolidin-3-yl]methyl}-1,2,4-oxadiazol-3-yl)-3-(propan-2-yl)-1H-indazole]
IC50 [1]: < 20 nM | Emax (human 5-HT4b receptor): 30% | EC50 (human 5-HT4b receptor): 4.3 nM

Compound: CC(=O)N1CC(CN2CC[C@@H](Cc3nc(-n4nc(C(C)C)c5cccc(F)c54)no3)C2)C1 [Example 513, 1-(3-{[(3S)-3-({3-[7-fluoro-3-(propan-2-yl)-1H-indazol-1-yl]-1,2,4-oxadiazol-5-yl}methyl)pyrrolidin-1-yl]methyl}azetidin-1-yl)ethanone]
IC50 [1]: < 20 nM | Emax (human 5-HT4b receptor): 81% | EC50 (human 5-HT4b receptor): 10.2 nM

Compound: CC(C)c1nn(-c2noc(C[C@@H]3CCN(CC4CN(S(C)(=O)=O)C4)C3)n2)c2c(F)cccc12 [Example 514, 7-fluoro-1-(5-{[(3S)-1-{[1-(methylsulfonyl)azetidin-3-yl]methyl}pyrrolidin-3-yl]methyl}-1,2,4-oxadiazol-3-yl)-3-(propan-2-yl)-1H-indazole]
IC50 [1]: < 20 nM | Emax (human 5-HT4b receptor): 70% | EC50 (human 5-HT4b receptor): 12 nM

Compound: CC(=O)N1CC[C@@H](CN2CC[C@@H](Cc3nc(-n4nc(C(C)C)c5cccc(F)c54)no3)C2)C1 [Example 515]
IC50 [1]: < 20 nM | Emax (human 5-HT4b receptor): 70% | EC50 (human 5-HT4b receptor): 8.5 nM

Other lines, results leading:

IC50 [1]: < 20 nM | Emax (human 5-HT4b receptor): 75% | EC50 (human 5-HT4b receptor): 7.2 nM
Compound: CC(C)c1nn(-c2noc(C[C@@H]3CCN(C[C@@H]4CCN(S(C)(=O)=O)C4)C3)n2)c2c(F)cccc12 [Example 516, 7-fluoro-1-(5-{[(3S)-1-{[(3S)-1-(methylsulfonyl)pyrrolidin-3-yl]methyl}pyrrolidin-3-yl]methyl}-1,2,4-oxadiazol-3-yl)-3-(propan-2-yl)-1H-indazole]

IC50 [1]: < 20 nM | Emax (human 5-HT4b receptor): 72% | EC50 (human 5-HT4b receptor): 6.1 nM
Compound: CC(=O)N1CC[C@H](CN2CC[C@@H](Cc3nc(-n4nc(C(C)C)c5cccc(F)c54)no3)C2)C1 [Example 517, 1-[(3R)-3-{[(3S)-3-({3-[7-fluoro-3-(propan-2-yl)-1H-indazol-1-yl]-1,2,4-oxadiazol-5-yl}methyl)pyrrolidin-1-yl]methyl}pyrrolidin-1-yl]ethanone]

IC50 [1]: < 20 nM | Emax (human 5-HT4b receptor): 59% | EC50 (human 5-HT4b receptor): 5.5 nM
Compound: CC(C)c1nn(-c2noc(C[C@@H]3CCN(C[C@H]4CCN(S(C)(=O)=O)C4)C3)n2)c2c(F)cccc12 [Example 518, 7-fluoro-1-(5-{[(3S)-1-{[(3R)-1-(methylsulfonyl)pyrrolidin-3-yl]methyl}pyrrolidin-3-yl]methyl}-1,2,4-oxadiazol-3-yl)-3-(propan-2-yl)-1H-indazole]

IC50 [1]: < 20 nM | Emax (human 5-HT4b receptor): 24% | EC50 (human 5-HT4b receptor): 2.9 nM
Compound: O=C(CO)N1CCC(N2CCC(c3nc(-n4nc(C5CC5)c5cccc(F)c54)no3)CC2)CC1 [Example 523, 1-{4-[3-(3-cyclopropyl-7-fluoro-1H-indazol-1-yl)-1,2,4-oxadiazol-5-yl]-1,4′-bipiperidin-1′-yl}-2-hydroxyethanone]

IC50 [1]: < 20 nM | Emax (human 5-HT4b receptor): 84% | EC50 (human 5-HT4b receptor): 4.3 nM
Compound: CCCc1nn(-c2noc(C3CCN(C4CCN(C(=O)CO)CC4)CC3)n2)c2c(F)cccc12 [Example 524, 1-{4-[3-(7-fluoro-3-propyl-1H-indazol-1-yl)-1,2,4-oxadiazol-5-yl]-1,4′-bipiperidin-1′-yl}-2-hydroxyethanone]

IC50 [1]: < 20 nM | Emax (human 5-HT4b receptor): 86% | EC50 (human 5-HT4b receptor): 18.1 nM
Compound: Cc1nn(-c2noc(C3CCN(C4CCN(C(=O)CO)CC4)CC3)n2)c2c(F)cccc12 [Example 525, 1-{4-[3-(7-fluoro-3-methyl-1H-indazol-1-yl)-1,2,4-oxadiazol-5-yl]-1,4′-bipiperidin-1′-yl}-2-hydroxyethanone]

IC50 [1]: < 20 nM | Emax (human 5-HT4b receptor): 114% | EC50 (human 5-HT4b receptor): 5.7 nM
Compound: O=C(CO)N1CCC(N2CCC(c3nc(-n4nc(C5CCC5)c5cccc(F)c54)no3)CC2)CC1 [Example 527, 1-{4-[3-(3-cyclobutyl-7-fluoro-1H-indazol-1-yl)-1,2,4-oxadiazol-5-yl]-1,4′-bipiperidin-1′-yl}-2-hydroxyethanone]

IC50 [1]: < 20 nM | Emax (human 5-HT4b receptor): 121% | EC50 (human 5-HT4b receptor): 17.3 nM
Compound: CCC(C)c1nn(-c2noc(C3CCN(C4CCN(C(=O)CO)CC4)CC3)n2)c2c(F)cccc12 (stereo not drawn) [Example 528, 1-(4-{3-[3-(butan-2-yl)-7-fluoro-1H-indazol-1-yl]-1,2,4-oxadiazol-5-yl}-1,4′-bipiperidin-1′-yl)-2-hydroxyethanone]

IC50 [1]: < 20 nM | Emax (human 5-HT4b receptor): 95% | EC50 (human 5-HT4b receptor): 11.4 nM
Compound: CC(C)c1nn(-c2noc(C3CCN(C4CCN(C(=O)CO)CC4(C)C)CC3)n2)c2c(F)cccc12 (stereo not drawn) [Example 531, 1-(4-{3-[7-fluoro-3-(propan-2-yl)-1H-indazol-1-yl]-1,2,4-oxadiazol-5-yl}-3′,3′-dimethyl-1,4′-bipiperidin-1′-yl)-2-hydroxyethanone]

IC50 [1]: 42.4 nM | Emax (human 5-HT4b receptor): 104% | EC50 (human 5-HT4b receptor): 5.7 nM
Compound: CC(C)c1nn(-c2noc(C3CCN(C4C5CCC4CN(C(=O)CO)C5)CC3)n2)c2c(F)cccc12 (stereo not drawn) [Example 534, 1-[(8-anti)-8-(4-(3-[7-fluoro-3-(propan-2-yl)-1H-indazol-1-yl]-1,2,4-oxadiazol-5-yl}piperidin-1-yl)-3-azabicyclo[3.2.1]oct-3-yl]-2-hydroxyethanone]

IC50 [1]: < 20 nM | Emax (human 5-HT4b receptor): 100% | EC50 (human 5-HT4b receptor): 3.7 nM
Compound: CC(C)c1nn(-c2noc(C3CCN([C@H]4[C@@H]5CCC[C@H]4CN(C(=O)CO)C5)CC3)n2)c2c(F)cccc12 [Example 536, 1-[(9-syn)-9-(4-{3-[7-fluoro-3-(propan-2-yl)-1H-indazol-1-yl]-1,2,4-oxadiazol-5-yl}piperidin-1-yl)-3-azabicyclo[3.3.1]non-3-yl]-2-hydroxyethanone]

IC50 [1]: < 20 nM | Emax (human 5-HT4b receptor): 111% | EC50 (human 5-HT4b receptor): 1.3 nM
Compound: CC(C)c1nn(-c2noc(C3CCN(C4(C)CCN(C(=O)CO)CC4)CC3)n2)c2c(F)cccc12 [Example 537, 1-(4-{3-[7-fluoro-3-(propan-2-yl)-1H-indazol-1-yl]-1,2,4-oxadiazol-5-yl}-4′-methyl-1,4′-bipiperidin-1′-yl)-2-hydroxyethanone]
